This is an account of results in BindingDB's records for doi:10.1021/acs.biochem.5b01325 (University of Texas At San Antonio, 2016).

The target of the experiment is T1, (S)-6-hydroxynicotine oxidase (Paenarthrobacter nicotinovorans, UniProt O86101).
T1 sequence (O86101 whole entry): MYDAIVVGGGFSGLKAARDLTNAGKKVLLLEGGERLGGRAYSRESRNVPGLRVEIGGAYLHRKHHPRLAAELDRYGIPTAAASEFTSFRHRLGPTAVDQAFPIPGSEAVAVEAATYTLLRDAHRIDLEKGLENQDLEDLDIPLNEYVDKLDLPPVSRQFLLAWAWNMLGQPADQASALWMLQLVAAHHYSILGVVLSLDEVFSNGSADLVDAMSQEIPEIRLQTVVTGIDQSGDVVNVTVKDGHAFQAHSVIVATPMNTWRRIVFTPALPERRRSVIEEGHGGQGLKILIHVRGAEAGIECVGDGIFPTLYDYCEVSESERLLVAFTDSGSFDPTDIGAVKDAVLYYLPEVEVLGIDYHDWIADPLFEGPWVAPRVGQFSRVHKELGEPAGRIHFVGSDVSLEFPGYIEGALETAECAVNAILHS
In words: Steady-State Kinetics. To be noted: pH 8. How it is done:
Initial rates of amine oxidation were routinely measured by monitoring oxygen consumption in 0.1 M Hepes (pH 8.0) and 0.1 M NaCl at 25 °C using an oxygen electrode (model 5300A, Yellow Springs Instruments, Yellow Springs, OH). With (R,S)-6-hydroxynicotine and (S)-6-hydroxynornicotine, the concentration of enzyme was typically 0.1 μM; this was increased to 4 μM for (S)-nicotine and (R,S)-4-(1-methyl pyrrolidine-2-yl)phenol. The concentration of oxygen was varied by bubbling the desired concentration of oxygen (62 μM to 1.25 mM) into the oxygen electrode cell for ∼10 min.
The compound `CN1CCC[C@H]1c1ccc(=O)[nH]c1` [(S)-6-hydroxynicotine] gave a Kd of 100 µM.
In the case of `CN1CCC[C@H]1c1ccc(O)cc1` [(S)-4-(1-methylpyrrolidine-2-yl)phenol], the Kd amounted to 2000 µM.
`O=c1ccc([C@@H]2CCCN2)c[nH]1` [(S)-6-hydroxynornicotine] displayed a Kd of 300 µM.
